Measurements taken from ChEMBL document CHEMBL3714716, “Modulators of the relaxin receptor 1” (2015).
Active and inactive are the calls of the source. The rule behind the calls is not given here.

Key:
[1] = biological target: T1, Relaxin receptor 1 (Homo sapiens) (UniProt Q9HBX9); assay: Agonist activity at RXFP1 receptor (unknown origin) expressed in HEK293 cells assessed as stimulation of cAMP production incubated for 30 mins by TR-FRET based HTRF assay relative to forskolin; type: functional, cell-based
T1 sequence (whole entry): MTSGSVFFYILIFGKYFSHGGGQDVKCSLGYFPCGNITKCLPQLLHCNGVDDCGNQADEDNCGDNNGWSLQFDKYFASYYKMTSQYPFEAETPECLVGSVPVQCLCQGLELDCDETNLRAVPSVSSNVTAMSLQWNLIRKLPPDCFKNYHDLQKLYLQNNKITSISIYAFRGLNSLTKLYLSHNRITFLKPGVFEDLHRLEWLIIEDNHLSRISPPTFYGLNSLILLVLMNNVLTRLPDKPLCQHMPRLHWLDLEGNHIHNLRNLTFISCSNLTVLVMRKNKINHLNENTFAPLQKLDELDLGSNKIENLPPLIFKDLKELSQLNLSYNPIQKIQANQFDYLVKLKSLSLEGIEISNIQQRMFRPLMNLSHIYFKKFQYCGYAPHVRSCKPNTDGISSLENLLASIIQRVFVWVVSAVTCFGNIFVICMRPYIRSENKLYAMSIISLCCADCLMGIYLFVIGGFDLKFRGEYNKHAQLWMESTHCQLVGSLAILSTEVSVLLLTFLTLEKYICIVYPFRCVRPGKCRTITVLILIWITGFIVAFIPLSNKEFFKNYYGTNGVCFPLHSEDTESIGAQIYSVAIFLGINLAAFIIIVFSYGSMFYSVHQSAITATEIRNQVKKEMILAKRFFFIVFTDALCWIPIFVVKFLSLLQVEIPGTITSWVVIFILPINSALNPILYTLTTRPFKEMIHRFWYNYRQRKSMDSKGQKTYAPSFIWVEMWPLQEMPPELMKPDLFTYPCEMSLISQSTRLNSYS

Relaxin receptor 1 [2] = biological target: T2, Relaxin receptor 1 (Homo sapiens, UniProt Q9HBX9); assay: Agonist activity at RXFP1 receptor (unknown origin) expressed in HEK293 cells assessed as stimulation of cAMP production incubated for 30 mins by TR-FRET based HTRF assay; type: functional, cell-based
T2 sequence (Q9HBX9 whole entry): T1 sequence (whole entry)

[3] = Stimulation of VEGF gene expression in human THP1 cells assessed as change in VEGF mRNA level incubated for 2 hrs by quantitative real time RT-PCR method relative to control; type: functional, cell-based; settings: THP-1
Relaxin receptor 1 [4] = biological target: T2, Relaxin receptor 1; assay: Agonist activity at RXFP1 receptor in human THP1 cells assessed as stimulation of cAMP production incubated for 30 mins by HTRF assay; type: functional, cell-based, THP-1

O=C(Nc1cccc(-c2ccccc2C(F)(F)F)c1)c1ccccc1NC(=O)C1CCCCC1
%max [1]: 74% | AC50 (Relaxin receptor 1 [2]; read-out: AC50): 2.65 µM

O=C(Nc1cccc(C(F)(F)F)c1)c1ccccc1Nc1ccccc1
%max [1]: 84% | AC50 (Relaxin receptor 1 [2]; read-out: AC50): 4.2 µM

CCOc1ccccc1C(=O)Nc1ccccc1C(=O)Nc1cccc(SC(F)(F)F)c1
%max [1]: 98% | AC50 (Relaxin receptor 1 [2]; read-out: AC50): 0.666 µM

CCOc1ccccc1C(=O)NCCC(=O)Nc1cccc(S(=O)(=O)C(F)(F)F)c1
%max [1]: 90% | AC50 (Relaxin receptor 1 [2]; read-out: AC50): 4.71 µM

COc1ccccc1C(=O)N(C)c1ccccc1C(=O)N(C)c1cccc(C(F)(F)F)c1
%max [1]: inactive | AC50 (Relaxin receptor 1 [2]; hek293): Not Active

O=C(Nc1ccccc1C(=O)Nc1cccc(C(F)(F)F)c1)c1ccc2ccccc2c1
%max [1]: 85% | AC50 (Relaxin receptor 1 [2]; read-out: AC50): 14.9 µM

COc1ccccc1C(=O)Nc1ccccc1C(=O)N(C)c1cccc(C(F)(F)F)c1
%max [1]: 77% | AC50 (Relaxin receptor 1 [2]; read-out: AC50): 29.7 µM

COc1ccc(C(=O)Nc2ccccc2C(=O)Nc2cccc(C(F)(F)F)c2)cc1
%max [1]: 71% | AC50 (Relaxin receptor 1 [2]; read-out: AC50): 9.4 µM

O=C(Nc1ccccc1C(=O)Nc1cccc(C(F)(F)F)c1)c1ccccc1I
%max [1]: 80% | AC50 (Relaxin receptor 1 [2]; read-out: AC50): 7.47 µM

C#Cc1cccc(NC(=O)c2ccccc2NC(=O)C2CCCCC2)c1
%max [1]: 85% | AC50 (Relaxin receptor 1 [2]; read-out: AC50): 6.66 µM

O=C(Nc1cccc(SC(F)(F)F)c1)c1ccccc1NC(=O)C1CCCCC1
%max [1]: 90% | AC50 (Relaxin receptor 1 [2]; read-out: AC50): 1.88 µM

CCCOc1ccccc1C(=O)Nc1ccccc1C(=O)Nc1cccc(S(=O)(=O)C(F)(F)F)c1
%max [1]: 98% | fold change (FC) [3]: 1.5 | AC50 (Relaxin receptor 1 [2]; read-out: AC50): 0.052 µM | EC50 (Relaxin receptor 1 [4]): 0.105 µM

O=C(NCc1ccco1)c1ccccc1NC(=O)c1ccccc1NC(=O)C1CCCCC1
%max [1]: 45% | AC50 (Relaxin receptor 1 [2]; read-out: AC50): 9.4 µM

CCOc1ccccc1C(=O)Nc1ncccc1C(=O)Nc1cccc(S(=O)(=O)C(F)(F)F)c1
%max [1]: 98% | AC50 (Relaxin receptor 1 [2]; read-out: AC50): 1.67 µM

O=C(Nc1ccc(F)cc1)c1ccccc1NC(=O)C1CCCCC1
%max [1]: 74% | AC50 (Relaxin receptor 1 [2]; read-out: AC50): 37.4 µM

CC(C)(C)OC(=O)N1CCN(CCOc2ccccc2C(=O)Nc2cccc(C(F)(F)F)c2)CC1
%max [1]: inactive | AC50 (Relaxin receptor 1 [2]; hek293): Not Active

O=C(Nc1cccc(F)c1)c1ccccc1NC(=O)C1CCCCC1
%max [1]: 81% | AC50 (Relaxin receptor 1 [2]; read-out: AC50): 13.3 µM
